Measured values: the supplement of paper PMC10307832

How the values were obtained:
Assay in all cases: relative viability (nuclei count vs DMSO), 5 days (fraction); higher = more cells survive
[1] = compound: CCOC1=CC=CC=C1N=NC2=C(NN(C2=O)C3=NC(=CS3)C4=CC=CC=C4)C [BAM7] + COc1cccc2cc(-c3nc([C@H]4CC[C@H](C(=O)O)CC4)n4ncnc(N)c34)[nH]c12 [OSI-027] (partner 0.5 µM)
In short: (§1)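 Values are medians from duplicate plates. Each reflects relative viability, defined as the nuclei count of treated wells over that of vehicle wells. Lung cancer cell lines in 1536-well plates were pin-tool dosed one day after seeding with one drug alone or with a fixed anchor-drug dose plus five library-drug doses (not always all listed) in √10 steps, then fixed, stained and imaged at 4× after 5 days.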

[2] = compound: CCn1c(-c2nonc2N)nc2c(C#CC(C)(C)O)ncc(OC[C@H]3CCCNC3)c21 + CCNC(=O)c1noc(-c2cc(C(C)C)c(O)cc2O)c1-c1ccc(CN2CCOCC2)cc1 [Luminespib] (partner 0.01 µM)
In short: as §1

[3] = compound: CCOC1=CC=CC=C1N=NC2=C(NN(C2=O)C3=NC(=CS3)C4=CC=CC=C4)C [BAM7] + N=C(N)NC(=N)NCCc1ccccc1 [Phenformin] (partner 250 µM)
In short: as §1

[4] = compound: CCOC1=CC=CC=C1N=NC2=C(NN(C2=O)C3=NC(=CS3)C4=CC=CC=C4)C [BAM7] + C[C@]1(O)C[C@@H](c2nc(-c3ccc4ccc(-c5ccccc5)nc4c3)c3c(N)nccn32)C1 [Linsitinib] (partner 1 µM)
In short: as §1

| Cell Line | relative viability ([1]; first compound 0.5 µM) | relative viability ([1]; first compound 5 µM) | relative viability ([1]; first compound 15.81 µM) | relative viability ([1]; first compound 50 µM) | relative viability ([2]; first compound 0.01 µM) | relative viability ([2]; first compound 0.03162 µM) | relative viability ([2]; first compound 0.1 µM) | relative viability ([2]; first compound 0.3162 µM) | relative viability ([2]; first compound 1 µM) | relative viability ([3]; first compound 0.5 µM) | relative viability ([3]; first compound 5 µM) | relative viability ([3]; first compound 15.81 µM) | relative viability ([3]; first compound 50 µM) | relative viability ([4]; first compound 0.5 µM) | relative viability ([4]; first compound 5 µM) | relative viability ([4]; first compound 15.81 µM) | relative viability ([4]; first compound 50 µM) |
| --- | --- | --- | --- | --- | --- | --- | --- | --- | --- | --- | --- | --- | --- | --- | --- | --- | --- |
| NCI-H1993 | 0.537 | 0.538 | 0.553 | 0.568 | 0.84 | 0.728 | 0.739 | 0.645 | 0.686 | 0.575 | 0.617 | 0.533 | 0.543 | 0.688 | 0.724 | 0.701 | 0.742 |
| RERF-LC-KJ | 0.472 | 0.422 | 0.334 | 0.404 | 1.12 | 1.31 | 1.27 | 1.19 | 1.1 | 0.357 | 0.35 | 0.29 | 0.328 | 0.862 | 0.775 | 0.833 | 0.929 |
| NCI-H23 | 0.492 | 0.561 | 0.451 | 0.526 | 0.235 | 0.202 | 0.242 | 0.219 | 0.237 | 0.816 | 0.76 | 0.86 | 0.856 | 0.507 | 0.663 | 0.698 | 0.679 |
| EMC-BAC-2 | 0.378 | 0.384 | 0.355 | 0.461 | 1.18 | 1.17 | 1.23 | 1.18 | 1.21 | 0.567 | 0.533 | 0.535 | 0.61 | 0.904 | 0.838 | 0.786 | 0.823 |
| NCI-H2405 | 0.623 | 0.686 | 0.608 | 0.683 | 0.542 | 0.793 | 0.663 | 0.647 | 0.698 | 0.395 | 0.411 | 0.416 | 0.435 | 1.02 | 0.881 | 0.865 | 1.09 |
| NCI-H358 | 0.832 | 0.899 | 0.796 | 0.908 | 0.375 | 0.403 | 0.279 | 0.257 | 0.419 | 0.343 | 0.383 | 0.369 | 0.376 | 0.782 | 0.878 | 0.704 | 0.787 |
| NCI-H1944 | 0.39 | 0.439 | 0.434 | 0.445 | 0.7 | 0.786 | 0.76 | 0.751 | 0.733 | 0.223 | 0.199 | 0.205 | 0.22 | 1.3 | 1.36 | 1.13 | 1.07 |
| EPLC-272H | 0.289 | – | 0.277 | 0.32 | 0.228 | 0.141 | 0.311 | 0.262 | 0.309 | 0.291 | – | 0.322 | 0.281 | 1.45 | 1.11 | 1.33 | 1.24 |
| NCI-H1915 | 0.687 | 0.674 | 0.6 | 0.625 | 0.713 | 0.898 | 0.741 | 0.755 | 0.724 | 0.377 | 0.374 | 0.405 | 0.382 | 1.08 | 1.2 | 1.08 | 1.1 |
| NCI-H596 | 0.686 | 0.576 | 0.593 | 0.725 | 1.06 | 1.13 | 1.17 | 0.935 | 1.13 | 0.751 | 0.804 | 0.705 | 0.811 | 1.05 | 1.15 | 1.02 | 1.14 |
| NCI-H322M | 0.576 | 0.617 | 0.57 | 0.65 | 0.784 | 0.847 | 0.855 | 0.665 | 0.682 | 0.77 | 0.805 | 0.806 | 0.799 | 0.892 | 0.805 | 0.949 | 0.845 |
| NCI-H2228 | 0.716 | 0.545 | 0.593 | 0.594 | 0.0991 | 0.159 | 0.145 | 0.113 | 0.123 | 0.302 | 0.355 | 0.418 | 0.317 | 0.674 | 0.789 | 0.554 | 0.842 |
| NCI-H647 | 0.613 | 0.622 | 0.549 | 0.68 | 0.327 | 0.177 | 0.203 | 0.127 | 0.193 | 0.54 | 0.443 | 0.539 | 0.591 | 1.27 | 1.32 | 1.13 | 1.12 |
| SK-MES-1 | 0.573 | 0.549 | 0.545 | 0.663 | 0.907 | 0.904 | 0.674 | 0.712 | 0.743 | 0.721 | 0.724 | 0.607 | 0.659 | 1.11 | 1.05 | 1.03 | 1.07 |
| NCI-H2085 | 0.733 | 0.571 | 0.52 | 0.678 | 0.417 | 0.382 | 0.492 | 0.42 | 0.463 | 0.691 | 0.619 | 0.625 | 0.711 | 0.968 | 1.03 | 0.821 | 0.911 |
| SW 1573 | 0.753 | 0.708 | 0.591 | 0.711 | 0.215 | 0.563 | 0.178 | 0.584 | 0.342 | 0.386 | 0.381 | 0.327 | 0.39 | 0.838 | 0.742 | 0.819 | 0.896 |
| NCI-H727 | 0.591 | 0.509 | 0.523 | 0.738 | 0.324 | 0.621 | 0.311 | 0.313 | 0.389 | 0.42 | – | 0.576 | 0.603 | 0.273 | 0.416 | 0.314 | 0.245 |
| NCI-H441 | 0.578 | 0.574 | 0.639 | 0.694 | 0.434 | 0.312 | 0.349 | 0.379 | 0.367 | 0.866 | 1.1 | 0.779 | 0.923 | 0.547 | 0.597 | 0.648 | 0.399 |
